# In PubChem BioAssay AID1963959 (Molecular Pharmacology Branch, DTP, NCI, 2024):
# Tested on: T-47D spheroids with HUVEC/MSC, viability
# Experiment: Anticancer human tumor T-47D cell line growth inhibition [PI3K];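 note: spheroids exposed to agents for seven days before reading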;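 for viability, T/C: percent of DMSO vehicle control luminescence so 100% = untreated growth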
# Settings: for viability, T/C: stronger effect = lower value
# How it was run: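 Tumor cells were combined with HUVEC and MSCs into spheroids, then dosed with PI3K-inhibitor combinations over half-log ranges capped near clinical Cmax or 10 microM.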
# [1] = curve of first compound, second compound 0.00316 µM
# [2] = curve of first compound, second compound 0.01 µM
# [3] = curve of first compound, second compound 0.0316 µM
# [4] = curve of first compound, second compound 0.1 µM
# [5] = curve of first compound, second compound 0.316 µM
# [6] = curve of first compound, second compound 1 µM
# [7] = second compound 0.00316 µM, first compound 0.0316 µM
# [8] = second compound 0.00316 µM, first compound 0.1 µM
# [9] = second compound 0.00316 µM, first compound 0.316 µM
# [10] = second compound 0.00316 µM, first compound 1 µM
# [11] = second compound 0.00316 µM, first compound 3.16 µM
# [12] = second compound 0.00316 µM, first compound 10 µM
# [13] = second compound 0.01 µM, first compound 0.0316 µM
# [14] = second compound 0.01 µM, first compound 0.1 µM
# [15] = second compound 0.01 µM, first compound 0.316 µM
# [16] = second compound 0.01 µM, first compound 1 µM
# [17] = second compound 0.01 µM, first compound 3.16 µM
# [18] = second compound 0.01 µM, first compound 10 µM
# [19] = second compound 0.0316 µM, first compound 0.0316 µM
# [20] = second compound 0.0316 µM, first compound 0.1 µM
# [21] = second compound 0.0316 µM, first compound 0.316 µM
# [22] = second compound 0.0316 µM, first compound 1 µM
# [23] = second compound 0.0316 µM, first compound 3.16 µM
# [24] = second compound 0.0316 µM, first compound 10 µM
# [25] = second compound 0.1 µM, first compound 0.0316 µM
# [26] = second compound 0.1 µM, first compound 0.1 µM
# [27] = second compound 0.1 µM, first compound 0.316 µM
# [28] = second compound 0.1 µM, first compound 1 µM
# [29] = second compound 0.1 µM, first compound 3.16 µM
# [30] = second compound 0.1 µM, first compound 10 µM
# [31] = second compound 0.316 µM, first compound 0.0316 µM
# [32] = second compound 0.316 µM, first compound 0.1 µM
# [33] = second compound 0.316 µM, first compound 0.316 µM
# [34] = second compound 0.316 µM, first compound 1 µM
# [35] = second compound 0.316 µM, first compound 3.16 µM
# [36] = second compound 0.316 µM, first compound 10 µM
# [37] = second compound 1 µM, first compound 0.0316 µM
# [38] = second compound 1 µM, first compound 0.1 µM
# [39] = second compound 1 µM, first compound 0.316 µM
# [40] = second compound 1 µM, first compound 1 µM
# [41] = second compound 1 µM, first compound 3.16 µM
# [42] = second compound 1 µM, first compound 10 µM
structure (smiles),measurement,setting,value
CC(Cn1ccc(-c2ccc(C#N)c(Cl)c2)n1)NC(=O)c1cc(C(C)O)[nH]n1 (stereo not drawn) + CC(Nc1ccc2c(c1)OCCn1cc(N3C(=O)OCC3C(F)F)nc1-2)C(N)=O,IC50,[1],> 10 µM
same,IC50,[2],> 10 µM
same,IC50,[3],> 10 µM
same,IC50,[4],> 10 µM
same,IC50,[5],> 10 µM
same,IC50,[6],0.25 µM
same,"viability, T/C",[7],92.5%
same,"viability, T/C",[8],91.2%
same,"viability, T/C",[9],83.2%
same,"viability, T/C",[10],79.1%
same,"viability, T/C",[11],88.5%
same,"viability, T/C",[12],59.3%
same,"viability, T/C",[13],114%
same,"viability, T/C",[14],85.7%
same,"viability, T/C",[15],92.1%
same,"viability, T/C",[16],73.5%
same,"viability, T/C",[17],92.2%
same,"viability, T/C",[18],63.2%
same,"viability, T/C",[19],125%
same,"viability, T/C",[20],98%
same,"viability, T/C",[21],76.2%
same,"viability, T/C",[22],83.2%
same,"viability, T/C",[23],90.6%
same,"viability, T/C",[24],62.7%
same,"viability, T/C",[25],83.1%
same,"viability, T/C",[26],76.5%
same,"viability, T/C",[27],76.2%
same,"viability, T/C",[28],72.1%
same,"viability, T/C",[29],87.7%
same,"viability, T/C",[30],67.2%
same,"viability, T/C",[31],65.8%
same,"viability, T/C",[32],65.7%
same,"viability, T/C",[33],55.2%
same,"viability, T/C",[34],57.3%
same,"viability, T/C",[35],60.2%
same,"viability, T/C",[36],53.5%
same,"viability, T/C",[37],87.2%
same,"viability, T/C",[38],56.4%
same,"viability, T/C",[39],46.8%
same,"viability, T/C",[40],46.1%
same,"viability, T/C",[41],54.7%
same,"viability, T/C",[42],41.4%
CC(Nc1ccc2c(c1)OCCn1cc(N3C(=O)OCC3C(F)F)nc1-2)C(N)=O (stereo not drawn),"viability, T/C",compound 0.00316 µM,95.1% [middle of 8 runs]
same,"viability, T/C",compound 0.0316 µM,93.7% [middle of 8 runs]
same,"viability, T/C",compound 0.316 µM,79.9% [middle of 8 runs]
same,"viability, T/C",compound 1 µM,57.9% [middle of 8 runs]
same,IC50,"compound alone, run of 04/24/2023",> 1 µM
Cn1ncnc1[C@H]1c2n[nH]c(=O)c3cc(F)cc(c23)N[C@@H]1c1ccc(F)cc1 + CC(Nc1ncnc2nc[nH]c12)c1cc2cccc(Cl)c2c(=O)n1-c1ccccc1,IC50,[3],> 0.1 µM
same,IC50,[4],> 0.1 µM
same,IC50,[5],> 0.1 µM
same,IC50,[6],> 0.1 µM
same,IC50,"curve of first compound, second compound 3.16 µM",> 0.1 µM
same,IC50,"curve of first compound, second compound 10 µM",> 0.1 µM
same,"viability, T/C","second compound 0.0316 µM, first compound 0.000316 µM",86.8%
same,"viability, T/C","second compound 0.0316 µM, first compound 0.001 µM",92.8%
same,"viability, T/C","second compound 0.0316 µM, first compound 0.00316 µM",79.7%
same,"viability, T/C","second compound 0.0316 µM, first compound 0.01 µM",94.8%
same,"viability, T/C",[19],99.6%
same,"viability, T/C",[20],80.8%
same,"viability, T/C","second compound 0.1 µM, first compound 0.000316 µM",110%
same,"viability, T/C","second compound 0.1 µM, first compound 0.001 µM",82.2%
same,"viability, T/C","second compound 0.1 µM, first compound 0.00316 µM",99.3%
same,"viability, T/C","second compound 0.1 µM, first compound 0.01 µM",91.5%
same,"viability, T/C",[25],89.5%
same,"viability, T/C",[26],93.3%
same,"viability, T/C","second compound 0.316 µM, first compound 0.000316 µM",98.1%
same,"viability, T/C","second compound 0.316 µM, first compound 0.001 µM",82.9%
same,"viability, T/C","second compound 0.316 µM, first compound 0.00316 µM",90.6%
same,"viability, T/C","second compound 0.316 µM, first compound 0.01 µM",100%
same,"viability, T/C",[31],85.6%
same,"viability, T/C",[32],92.1%
same,"viability, T/C","second compound 1 µM, first compound 0.000316 µM",98.3%
same,"viability, T/C","second compound 1 µM, first compound 0.001 µM",89.6%
same,"viability, T/C","second compound 1 µM, first compound 0.00316 µM",102%
same,"viability, T/C","second compound 1 µM, first compound 0.01 µM",74.5%
same,"viability, T/C",[37],86.5%
same,"viability, T/C",[38],92.6%
same,"viability, T/C","second compound 3.16 µM, first compound 0.000316 µM",86.3%
same,"viability, T/C","second compound 3.16 µM, first compound 0.001 µM",90.2%
same,"viability, T/C","second compound 3.16 µM, first compound 0.00316 µM",88.6%
same,"viability, T/C","second compound 3.16 µM, first compound 0.01 µM",83.2%
same,"viability, T/C","second compound 3.16 µM, first compound 0.0316 µM",103%
same,"viability, T/C","second compound 3.16 µM, first compound 0.1 µM",96.3%
same,"viability, T/C","second compound 10 µM, first compound 0.000316 µM",80.7%
same,"viability, T/C","second compound 10 µM, first compound 0.001 µM",81.7%
same,"viability, T/C","second compound 10 µM, first compound 0.00316 µM",83.4%
same,"viability, T/C","second compound 10 µM, first compound 0.01 µM",92.3%
same,"viability, T/C","second compound 10 µM, first compound 0.0316 µM",102%
same,"viability, T/C","second compound 10 µM, first compound 0.1 µM",83.7%
CCCS(=O)(=O)Nc1ccc(F)c(C(=O)c2c[nH]c3ncc(-c4ccc(Cl)cc4)cc23)c1F + CC(Nc1ccc2c(c1)OCCn1cc(N3C(=O)OCC3C(F)F)nc1-2)C(N)=O,IC50,[1],9.16 µM
same,IC50,[2],9.58 µM
same,IC50,[3],8.53 µM
same,IC50,[4],6.95 µM
same,IC50,[5],5.04 µM
same,IC50,[6],3.21 µM
same,"viability, T/C",[7],99.3%
same,"viability, T/C",[8],87.8%
same,"viability, T/C",[9],108%
same,"viability, T/C",[10],79.2%
same,"viability, T/C",[11],103%
same,"viability, T/C",[12],46.3%
same,"viability, T/C",[13],99%
same,"viability, T/C",[14],89.1%
same,"viability, T/C",[15],98.5%
same,"viability, T/C",[16],70.7%
same,"viability, T/C",[17],87.8%
same,"viability, T/C",[18],47%
same,"viability, T/C",[19],80.3%
same,"viability, T/C",[20],90.2%
same,"viability, T/C",[21],102%
same,"viability, T/C",[22],97.3%
same,"viability, T/C",[23],98.7%
same,"viability, T/C",[24],43%
same,"viability, T/C",[25],83.2%
same,"viability, T/C",[26],82.8%
same,"viability, T/C",[27],97.7%
same,"viability, T/C",[28],91.3%
same,"viability, T/C",[29],74.2%
same,"viability, T/C",[30],38.9%
same,"viability, T/C",[31],69.3%
same,"viability, T/C",[32],79.3%
same,"viability, T/C",[33],66.9%
same,"viability, T/C",[34],70.9%
same,"viability, T/C",[35],55.8%
same,"viability, T/C",[36],41.4%
same,"viability, T/C",[37],48.5%
same,"viability, T/C",[38],55.1%
same,"viability, T/C",[39],69.4%
same,"viability, T/C",[40],51.5%
same,"viability, T/C",[41],49.1%
same,"viability, T/C",[42],35.5%
CC(Cn1ccc(-c2ccc(C#N)c(Cl)c2)n1)NC(=O)c1cc(C(C)O)[nH]n1 (stereo not drawn),"viability, T/C",compound 0.0316 µM,100% [middle of 4 runs]
same,"viability, T/C",compound 0.1 µM,107% [middle of 4 runs]
same,"viability, T/C",compound 0.316 µM,92.3% [middle of 4 runs]
same,"viability, T/C",compound 1 µM,95.2% [middle of 4 runs]
same,"viability, T/C",compound 3.16 µM,89.8% [middle of 4 runs]
same,"viability, T/C",compound 10 µM,58.7% [middle of 4 runs]
same,IC50,curve of compound,> 10 µM
